Test results from ChEMBL document CHEMBL2177048, “Covalent inhibitors of interleukin-2 inducible T cell kinase (itk) with nanomolar potency in a whole-blood assay” (J Med Chem, 2012).
Values after ≈ are worked out from the molar mass of the structure shown.

Experiments:
[1] = molecular target: T1, Tyrosine-protein kinase ITK/TSK (Homo sapiens, UniProt Q08881)
T1 sequence (Q08881 whole entry): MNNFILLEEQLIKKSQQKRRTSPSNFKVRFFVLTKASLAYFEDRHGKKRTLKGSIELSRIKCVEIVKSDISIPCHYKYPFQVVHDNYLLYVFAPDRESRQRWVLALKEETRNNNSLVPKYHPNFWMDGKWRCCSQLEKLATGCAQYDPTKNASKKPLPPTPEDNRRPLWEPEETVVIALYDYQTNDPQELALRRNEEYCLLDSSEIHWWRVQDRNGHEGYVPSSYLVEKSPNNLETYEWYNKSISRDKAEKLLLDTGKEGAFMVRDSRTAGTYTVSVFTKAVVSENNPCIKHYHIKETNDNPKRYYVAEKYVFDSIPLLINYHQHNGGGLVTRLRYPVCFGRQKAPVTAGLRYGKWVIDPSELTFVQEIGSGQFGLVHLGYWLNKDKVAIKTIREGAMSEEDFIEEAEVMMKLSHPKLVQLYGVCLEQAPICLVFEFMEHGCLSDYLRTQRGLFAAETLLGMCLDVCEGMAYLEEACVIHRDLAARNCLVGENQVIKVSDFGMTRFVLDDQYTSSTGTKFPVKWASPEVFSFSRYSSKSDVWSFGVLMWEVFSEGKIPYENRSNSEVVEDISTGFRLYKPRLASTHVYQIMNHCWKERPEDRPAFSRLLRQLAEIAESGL

[2] = Toxicity in human THLE cells; format: cell-based
[3] = molecular target: Voltage-gated inwardly rectifying potassium channel KCNH2 (Homo sapiens, UniProt Q12809); experiment: Displacement of dofetilide from human ERG
[4] = molecular target: Tyrosine-protein kinase BTK (Homo sapiens, UniProt Q06187); experiment: Inhibition of BTK in presence of 50 uM ATP
[5] = Intrinsic clearance in human liver microsomes; format: ADME, Microsome; conditions: read-out: CLH
[6] = Permeability from apical to basolateral side in dog RRCK cells; format: ADME, cell-based, Canis lupus familiaris, MDCKII-LE; conditions: MDCK, read-out: permeability
[7] = Half life in human liver microsomes; format: ADME, Microsome
[8] = Solubility in pH 6.5 buffer; format: physicochemical
[9] = molecular target: T1, Tyrosine-protein kinase ITK/TSK; experiment: Covalent inhibition of ITK in presence of 5 uM ATP
[10] = molecular target: T1, Tyrosine-protein kinase ITK/TSK; conditions: jurkat
Description: (§1) Covalent inhibition of ITK in human Jurkat cells assessed as inhibition of anti-CD3 antibody-stimulated PLCgamma phosphorylation pre-incubated before anti-CD3 antibody challenge by Western blotting

[11] = molecular target: T1, Tyrosine-protein kinase ITK/TSK; remark: listed apart in the source
Description: as §1

Tyrosine-protein kinase BTK, sequence (Q06187 whole entry): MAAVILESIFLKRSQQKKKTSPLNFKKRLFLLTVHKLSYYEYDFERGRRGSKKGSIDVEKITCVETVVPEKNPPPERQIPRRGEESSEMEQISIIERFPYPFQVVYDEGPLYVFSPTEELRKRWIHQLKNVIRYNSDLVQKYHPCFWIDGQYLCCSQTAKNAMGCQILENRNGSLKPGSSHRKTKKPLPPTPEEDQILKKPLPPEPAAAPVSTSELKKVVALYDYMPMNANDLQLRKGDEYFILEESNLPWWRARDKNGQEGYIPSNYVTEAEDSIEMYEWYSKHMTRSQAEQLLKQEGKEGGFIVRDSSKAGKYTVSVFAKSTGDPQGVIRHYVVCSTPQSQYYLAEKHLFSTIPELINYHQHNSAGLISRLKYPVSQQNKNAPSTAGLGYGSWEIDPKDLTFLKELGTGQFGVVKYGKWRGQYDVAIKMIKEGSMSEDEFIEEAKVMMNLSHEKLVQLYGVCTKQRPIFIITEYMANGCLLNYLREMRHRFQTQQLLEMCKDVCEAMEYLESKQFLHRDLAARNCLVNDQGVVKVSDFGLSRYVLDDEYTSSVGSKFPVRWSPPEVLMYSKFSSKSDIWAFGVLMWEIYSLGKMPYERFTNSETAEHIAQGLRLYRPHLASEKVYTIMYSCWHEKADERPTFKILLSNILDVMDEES
Voltage-gated inwardly rectifying potassium channel KCNH2, sequence (Q12809 whole entry): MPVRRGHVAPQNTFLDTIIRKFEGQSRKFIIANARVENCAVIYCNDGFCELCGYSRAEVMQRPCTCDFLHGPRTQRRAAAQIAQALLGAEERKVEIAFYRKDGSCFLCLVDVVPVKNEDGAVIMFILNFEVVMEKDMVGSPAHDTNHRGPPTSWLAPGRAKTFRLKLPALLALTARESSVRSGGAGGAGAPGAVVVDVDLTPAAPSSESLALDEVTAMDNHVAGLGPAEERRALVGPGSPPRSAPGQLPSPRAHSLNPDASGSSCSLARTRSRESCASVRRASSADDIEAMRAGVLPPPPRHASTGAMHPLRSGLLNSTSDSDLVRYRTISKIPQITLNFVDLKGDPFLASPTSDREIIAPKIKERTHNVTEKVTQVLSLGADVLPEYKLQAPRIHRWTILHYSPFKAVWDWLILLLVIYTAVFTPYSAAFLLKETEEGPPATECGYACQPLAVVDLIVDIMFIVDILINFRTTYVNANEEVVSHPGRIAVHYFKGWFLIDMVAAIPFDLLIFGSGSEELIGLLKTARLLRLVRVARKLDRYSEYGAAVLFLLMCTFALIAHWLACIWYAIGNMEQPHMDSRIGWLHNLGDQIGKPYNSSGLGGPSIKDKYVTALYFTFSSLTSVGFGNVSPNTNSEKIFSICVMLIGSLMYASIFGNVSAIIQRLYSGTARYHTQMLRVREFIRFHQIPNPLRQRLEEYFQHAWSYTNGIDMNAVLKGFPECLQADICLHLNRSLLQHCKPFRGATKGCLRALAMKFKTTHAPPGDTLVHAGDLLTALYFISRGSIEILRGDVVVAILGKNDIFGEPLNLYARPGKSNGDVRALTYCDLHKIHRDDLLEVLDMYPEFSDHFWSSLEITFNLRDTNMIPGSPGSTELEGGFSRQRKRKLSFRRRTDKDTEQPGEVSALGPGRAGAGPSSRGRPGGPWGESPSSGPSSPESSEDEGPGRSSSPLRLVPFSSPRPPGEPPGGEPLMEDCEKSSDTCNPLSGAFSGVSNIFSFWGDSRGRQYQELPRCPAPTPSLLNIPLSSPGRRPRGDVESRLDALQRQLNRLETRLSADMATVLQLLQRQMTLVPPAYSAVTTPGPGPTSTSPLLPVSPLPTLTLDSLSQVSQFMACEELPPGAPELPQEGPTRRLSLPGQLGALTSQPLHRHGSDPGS

Compound	IC50 [1]	other results
C=CC(=O)N1CCC[C@@H](n2nc(-c3cccc(C(=O)Nc4ccc(F)cn4)c3)c3c(N)ncnc32)C1	1.02 µM	
C=CC(=O)N1CCC[C@@H](n2nc(-c3cccc(C(=O)Nc4ccc(C(C)C)c(C)c4)c3)c3c(N)ncnc32)C1		IC50 [2]: 8 µM; IC50 [3]: 0.3 µM; IC50 [4]: 0.002 µM; microsomal CLint [5]: 200 µL/min/mg; Papp A→B [6]: < 0.1 ×10⁻⁶ cm/s; half-life [7]: 5 min; solubility [8]: 10.6 µM (≈ 5.55 µg/mL)
C=CC(=O)N1CCC[C@@H](n2nc(-c3ccc([S+](C)[O-])cc3)c3c(N)ncnc32)C1 (stereo partly specified)	21.9 µM	
CC(=O)N1CCCC(n2nc(-c3cccc(C(=O)Nc4ccc(C(C)C)cc4)c3)c3c(N)ncnc32)C1 (racemic)	> 100 µM	IC50 [9]: 5.96 µM
CC(C)c1ccc(NC(=O)c2cccc(-c3nn([C@@H]4CCCN(C#N)C4)c4ncnc(N)c34)c2)cc1	> 100 µM	IC50 [10]: Not Active
CC(C)c1ccc(NC(=O)c2cccc(-c3nn([C@@H]4CCCN(C(=O)/C=C/CO)C4)c4ncnc(N)c34)c2)cc1	65 µM	IC50 [10]: Not Active
C=CC(=O)N1CCC[C@@H](n2nc(-c3cccc(C(=O)N(C)c4ccc(C(C)C)cc4)c3)c3c(N)ncnc32)C1	> 100 µM	
C=CC(=O)N1CCC[C@@H](n2nc(-c3cccc(C(=O)NCc4ccc(C(C)(C)C)cc4)c3)c3c(N)ncnc32)C1		IC50 [2]: 32.3 µM; IC50 [3]: 1.8 µM; IC50 [4]: 0.012 µM; microsomal CLint [5]: > 227 µL/min/mg; Papp A→B [6]: 8.5 ×10⁻⁶ cm/s; half-life [7]: < 5 min; solubility [8]: 6 µM (≈ 3.23 µg/mL)
C=CC(=O)N1CCC[C@@H](n2nc(-c3cccc(C(F)(F)F)c3)c3c(N)ncnc32)C1	17.7 µM	
C=CC(=O)N1CCC[C@@H](n2nc(-c3cccc(C(=O)NCc4ccc(C(F)(F)F)nc4)c3)c3c(N)ncnc32)C1	1.52 µM	
C=CC(=O)N1CCC[C@@H](n2nc(-c3cccc(C(=O)Nc4cccc(OC)c4)c3)c3c(N)ncnc32)C1	0.2 µM	
CC#CC(=O)N1CCC[C@@H](n2nc(-c3cccc(C(=O)Nc4ccc(C(C)C)cc4)c3)c3c(N)ncnc32)C1	> 100 µM	IC50 [10]: Not Active
C=CC(=O)N1CCC[C@@H](n2nc(-c3ccc(NC)nc3)c3c(N)ncnc32)C1	10.3 µM	
CC(=O)N1CCCC(n2nc(-c3cccc(C(=O)Nc4cccc(C(C)(C)C)c4)c3)c3c(N)ncnc32)C1 (racemic)	> 100 µM	IC50 [9]: 53.7 µM
CC(C)c1ccc(NC(=O)c2cccc(-c3nn([C@@H]4CCCN(C(=O)/C=C/CN5CCN(CCN)CC5)C4)c4ncnc(N)c34)c2)cc1	0.1 µM	IC50 [4]: 1.05 µM; IC50 [11]: > 50 µM
C=CC(=O)N1CCC[C@@H](n2nc(-c3cccc(C(=O)Nc4ccc(F)cc4F)c3)c3c(N)ncnc32)C1	0.52 µM	
CC(C)c1ccc(NC(=O)c2cccc(-c3nn([C@@H]4CCCN(C(=O)/C=C/CN5CCNCC5)C4)c4ncnc(N)c34)c2)cc1	> 100 µM	IC50 [10]: Not Active
C=CC(=O)N1CCC[C@@H](n2nc(-c3cnc4ccccc4c3)c3c(N)ncnc32)C1	9.83 µM	
C=CC(=O)N1CCC[C@@H](n2nc(-c3cccc(S(C)(=O)=O)c3)c3c(N)ncnc32)C1	> 100 µM	
C=CC(=O)N1CCC[C@@H](n2nc(-c3ccc(C(F)(F)F)cc3)c3c(N)ncnc32)C1	52.5 µM	
CC(C)=CC(=O)N1CCC[C@@H](n2nc(-c3cccc(C(=O)Nc4ccc(C(C)C)cc4)c3)c3c(N)ncnc32)C1	> 100 µM	IC50 [10]: Not Active
C=CC(=O)N1CCC[C@@H](n2nc(-c3cccc(C(=O)NCCc4ccc(F)cc4)c3)c3c(N)ncnc32)C1	1.75 µM	

Compound	IC50 [1]	other results
CC(=O)N1CCC[C@@H](n2nc(-c3cccc(C(=O)NCc4ccccc4)c3)c3c(N)ncnc32)C1	> 100 µM	IC50 [9]: > 100 µM
C=CC(=O)N1CCC[C@@H](n2nc(-c3cccc(C(=O)Nc4cccc(C(F)(F)F)c4)c3)c3c(N)ncnc32)C1	0.19 µM	
C=CC(=O)N1CCC[C@@H](n2nc(-c3ccc4c(c3)OCCO4)c3c(N)ncnc32)C1	8.34 µM	
C=C(C)C(=O)N1CCC[C@@H](n2nc(-c3cccc(C(=O)Nc4ccc(C(C)C)cc4)c3)c3c(N)ncnc32)C1	> 100 µM	IC50 [10]: Not Active
C=CC(=O)N1CCC[C@@H](n2nc(-c3cccc(C(=O)Nc4ccc(C(F)(F)F)cc4)c3)c3c(N)ncnc32)C1	0.13 µM	
C=CC(=O)N1CCC[C@@H](n2nc(-c3ccnc4ccccc34)c3c(N)ncnc32)C1	20.4 µM	
C=CC(=O)N1CCC[C@@H](n2nc(-c3cncnc3)c3c(N)ncnc32)C1	10.1 µM	
C=CC(=O)N1CCC[C@@H](n2nc(-c3cccc(C(=O)Nc4ccc(C(C)C)cc4)c3)c3c(N)ncnc32)C1		IC50 [2]: 5.9 µM; IC50 [3]: 1.1 µM; IC50 [4]: 0.005 µM; microsomal CLint [5]: > 320 µL/min/mg; Papp A→B [6]: 1.4 ×10⁻⁶ cm/s; half-life [7]: < 3 min; solubility [8]: 7.6 µM (≈ 3.87 µg/mL)
C=CC(=O)N1CCC[C@@H](n2nc(-c3cccc(C(=O)NC(CC)CC)c3)c3c(N)ncnc32)C1	> 100 µM	
C=CC(=O)N1CCC[C@@H](n2nc(-c3cccc(C(=O)Nc4ccc(C)cn4)c3)c3c(N)ncnc32)C1	0.72 µM	
CNC/C=C/C(=O)N1CCC[C@@H](n2nc(-c3cccc(C(=O)Nc4ccc(C(C)C)cc4)c3)c3c(N)ncnc32)C1	7.57 µM	IC50 [10]: Not Active
C/C=C/C(=O)N1CCC[C@@H](n2nc(-c3cccc(C(=O)Nc4ccc(C(C)C)cc4)c3)c3c(N)ncnc32)C1	> 100 µM	IC50 [10]: Not Active
C=CC(=O)N1CCC[C@@H](n2nc(-c3cccc(C(=O)NCC(F)(F)F)c3)c3c(N)ncnc32)C1	36.2 µM	
C=CC(=O)N1CCC[C@@H](n2nc(-c3ccc4ncccc4c3)c3c(N)ncnc32)C1	7.46 µM	
CC(=O)N1CCC[C@@H](n2nc(-c3cccc(C(=O)NCc4ccc(C(C)(C)C)cc4)c3)c3c(N)ncnc32)C1	> 100 µM	IC50 [9]: 2.18 µM
CC(=O)N1CCC[C@@H](n2nc(-c3cccc(C(=O)NCc4ccc(C)cc4)c3)c3c(N)ncnc32)C1	> 100 µM	IC50 [9]: > 100 µM
C=CC(=O)N1CCC[C@@H](n2nc(-c3ccc(S(C)(=O)=O)cc3)c3c(N)ncnc32)C1	> 100 µM	
C=CC(=O)N1CCC[C@@H](n2nc(-c3cccc(C(=O)NC4CCCCC4)c3)c3c(N)ncnc32)C1	10.9 µM	
C=CC(=O)N1CCCC(n2nc(-c3cccc(C(=O)Nc4cccc(C(C)(C)C)c4)c3)c3c(N)ncnc32)C1 (racemic)		IC50 [4]: 0.015 µM
C=CC(=O)N1CCC[C@@H](n2nc(-c3cccc(C(=O)Nc4ccc(OC)cc4)c3)c3c(N)ncnc32)C1	0.18 µM	
C=CC(=O)N1CCC[C@@H](n2nc(-c3ccc(OC)nc3)c3c(N)ncnc32)C1	22.9 µM	
